The values below come from US11155841B2, “Method for producing sphingoid base or sphingolipid” (AJINOMOTO CO., INC., priority 2015, dated 2021).

The nature of this series: Phytosphingosine solubility with various cyclodextrins in aqueous solution. Type of series: physicochemical. The note with it: aqueous 2-hydroxypropyl-α-cyclodextrin solution, aqueous with cosolvent or surfactant or cyclodextrin, thermodynamic from solid; excess of pure phytosphingosine (20 g/l) incubated with 2-hydroxypropyl-α-cyclodextrin solution; quantified by LC-MS; read-out: Solubilized phytosphingosine in the supernatants. The procedure:
Phytosphingosine amounts (mg/l) measured in supernatants after incubation of an excess of pure phytosphingosine (20 g/l) with each of the three types of cyclodextrin at various concentrations.
These experiments were conducted to determine if and to what extent cyclodextrins solubilized sphingoid bases. To that end, an excess of phytosphingosine was incubated with increasing concentrations of solutions of three different types of cyclodextrin species—α-cyclodextrin, 2-hydroxypropyl-α-cyclodextrin, 2-hydroxypropyl-β-cyclodextrin. Solubilized phytosphingosine in the supernatants were quantified by liquid chromatography-mass spectrometry (LC-MS) using standards prepared in the same cyclodextrin solutions.

Turning to `CCCCCCCCCCCCCC[C@@H](O)[C@@H](O)[C@@H](N)CO` [phytosphingosine], the solubility is more than 9000 µg/mL.
